This is an account of results in US20110263693A1, “CELASTROL, GEDUNIN, AND DERIVATIVES THEREOF AS HSP90 INHIBITORS” (DANA-FARBER CANCER INSTITUTE, INC., priority 2006, published 2011).

One experiment relates to celastrol signature. As to the kind of experiment: Connectivity Map query with the celastrol signature. It counts as cell-based, human. Set-up: key to celastrol score (connectivity score): connectivity score, based on Kolmogorov-Smirnov statistic. The settings on record: for celastrol score (connectivity score): enrichment of the celastrol signature (1.25 μM celastrol at 6 h, LNCaP) in the compound's Connectivity Map profiles, 6 hr treatment; for celastrol rank: rank by celastrol score among 164 Connectivity Map compounds. The text has this:
(§1) Indeed, a major challenge in cell-based chemical biology and chemical genomics is the identification of compounds' targets (Gardner et al., 2003). We hypothesized that gene expression signatures could be used to identify compound action based on the similarity of such compound-induced signatures to signatures of existing drugs of known mechanism. We therefore employed a collection of gene expression profiles of drug-treated cell lines that was developed in our lab, termed the Connectivity Map (Lamb et al., 2006). This database comprises 453 genome-wide Affymetrix expression profiles derived from the treatment of human cell lines with 164 small molecules, primarily FDA-approved drugs. A 6 hr treatment time was chosen in an attempt to capture the primary, and potentially mechanistic, effects of the compounds rather than the downstream phenotypic consequences.
(§2) In order to use the Connectivity Map to gain insight into celastrol and gedunin function, we first defined a gene expression signature of celastrol and gedunin activity. The expression signatures of celastrol and gedunin were derived by expression profiling of RNA from LNCaP cells treated with celastrol (1.25 μM), gedunin (20 μM), and vehicle (DMSO) for 6 hr; signatures were defined using comparative marker selection to identify transcripts that distinguished between the compound- and vehicle-treated profiles by the signal-to-noise (SNR) metric. The enrichment of these signatures in the gene expression profiles of the Connectivity Map database was then assessed using a gene enrichment metric, the connectivity score, based on the Kolmogorov-Smirnov statistic (Lamb et al., 2003).
(§3) The celastrol and gedunin signatures were developed from RMA-processed microarray data from LNCaP cells treated with 1.25 μM celastrol or 20 μM gedunin for 6 hours. Comparative marker selection was used to identify markers that distinguished celastrol- and/or gedunin-treated samples from vehicle-treated samples by the median SNR (Golub et al., 1999). The top 50 markers that increased and decreased relative to vehicle-treated controls were used as the signatures.
(§4) The current version of the Connectivity Map data set (build01) contains genome-wide expression data for 453 treatment and vehicle control pairs, representing 164 distinct small molecules. Cell treatments and Affymetrix profiling were predominantly carried out in MCF7 cells with 6 hr treatments as detailed (Table 4) (Lamb et al., 2006). Enrichment of the induced and repressed genes of a signature within each Connectivity Map treatment profile was estimated with a metric based on the Kolmogorov-Smirnov statistic as described (Lamb et al., 2003, Lamb et al., 2006). Connectivity Map data are available at www.broad.mit.edu/cmap/ and GEO (accession number GSE5258).
(§5) For the celastrol and gedunin signatures, RMA-processed data was filtered and thresholded (min fold change=2, min absolute change=50, floor=10, ceiling=16000). Comparative marker selection (GenePattern) was used to identify markers that distinguished celastrol- and/or gedunin-treated samples from vehicle-treated samples by the median SNR. The top fifty markers that increased and decreased relative to vehicle treated controls were used as the celastrol, gedunin, or joint celastrol/gedunin signatures.
(§6) The current version of The Connectivity Map dataset (build01) contains genome-wide expression data for 453 treatment and vehicle control pairs, representing 164 distinct small molecules. Cell treatments were predominantly carried out in the MCF7 cell line for 6 h as detailed in Table 4. Affymetrix profiling was then carried out as described (Lamb et al., 2006).

The test system of the next experiment is gedunin signature. As to the kind of experiment: Connectivity Map query with the gedunin signature. It counts as cell-based, human. Details: key to gedunin score (connectivity score): connectivity score, based on Kolmogorov-Smirnov statistic. The settings on record: for gedunin score (connectivity score): enrichment of the gedunin signature (20 μM gedunin at 6 hours, LNCaP) in the compound's Connectivity Map profiles, 6 hr treatment; for gedunin rank: rank by gedunin score among 164 Connectivity Map compounds.
Description: as §1, §2, §3, §4, §5, §6

Residues, ends and D or L forms follow the SMILES beside them. *: point of attachment. Cbz = O=C(OCc1ccccc1)*

For the molecule `COC(=O)Nc1nc2ccc(C(=O)c3cccs3)cc2[nH]1` [nocodazole], in the experiment on celastrol signature, the “celastrol score (connectivity score)” value is 0.517. In the experiment with gedunin signature, the “gedunin score (connectivity score)” value was found to be 0.436.
The matching figures for `NC(CO)C(=O)NNCc1ccc(O)c(O)c1O` (stereo not shown) [benserazide]: 0 and −0.441.
For `C=C[C@@]1(C)CC(=O)[C@]2(O)[C@@]3(C)[C@@H](O)CCC(C)(C)[C@@H]3[C@H](O)[C@H](OC(C)=O)[C@@]2(C)O1` [colforsin], the “celastrol score (connectivity score)” value with celastrol signature came to 0. In the experiment on gedunin signature, the “gedunin score (connectivity score)” value came out at 0.
In the case of `Nc1ncn([C@H]2C[C@H](O)[C@@H](CO)O2)c(=O)n1` [decitabine], the “celastrol score (connectivity score)” value in the experiment on celastrol signature was determined as 0. Further, the “gedunin score (connectivity score)” value in the experiment with gedunin signature turned out to be 0.
In the case of `O=C1CCC(N2C(=O)c3ccccc3C2=O)C(=O)N1` (stereo not shown) [thalidomide], the “celastrol score (connectivity score)” value in the experiment on celastrol signature is −0.256. Moreover, the “gedunin score (connectivity score)” value with gedunin signature is given as 0.121.
On to `Cc1ccc2c(c1)C(=O)C1(O)CCN(c3ccccc3)C1=N2` (stereo not shown) [blebbistatin], for which, in the experiment with celastrol signature, the “celastrol score (connectivity score)” value was found to be 0 and the celastrol rank is on record as 87. In the experiment with gedunin signature, the “gedunin score (connectivity score)” value turned out to be 0 and the gedunin rank was found to be 107.
Regarding `C[C@]12CC[C@@H]3c4ccc(O)cc4C[C@@H](CCCCCCCCC[S+]([O-])CCCC(F)(F)C(F)(F)F)[C@H]3[C@@H]1CC[C@@H]2O` (stereo partly shown) [fulvestrant], the “celastrol score (connectivity score)” value in the experiment with celastrol signature turned out to be 0.069. Also, the “gedunin score (connectivity score)” value with gedunin signature is given as 0.19.
For the molecule `COc1ccc2c(c1)c(CC(=O)O)c(C)n2C(=O)c1ccc(Cl)cc1` [indometacin], in the experiment on celastrol signature, the “celastrol score (connectivity score)” value turned out to be 0.228. The “gedunin score (connectivity score)” value in the experiment on gedunin signature is reported as 0.087.
The matching figures for `COC[C@H]1OC(=O)c2coc3c2[C@@]1(C)C1=C(C3=O)[C@@H]2CCC(=O)[C@@]2(C)C[C@H]1OC(C)=O` [wortmannin]: −0.324 and 0.126.
The matching figures for `CN[C@H]1CCc2cc(OC)c(OC)c(OC)c2-c2ccc(OC)c(=O)cc21` [demecolcine]: 0 and 0.
The matching figures for depudecin: 0.22 and 0.176.
`NCCNCCNCCNCCN` [tetraethylenepentamine]: the “celastrol score (connectivity score)” value in the experiment with celastrol signature is −0.039. In addition, the “gedunin score (connectivity score)” value in the experiment on gedunin signature is reported as −0.092.
Take `O=C1NC(=O)c2cc(Nc3ccccc3)c(Nc3ccccc3)cc21` [4,5-dianilinophthalimide]: the “celastrol score (connectivity score)” value in the experiment on celastrol signature came out at 0. The “gedunin score (connectivity score)” value in the experiment on gedunin signature is listed as 0.
On to `C=C1[C@@H](C)[C@H]2[C@H](Cc3ccccc3)NC(=O)[C@]23OC(=O)/C=C/[C@H](O)CCC[C@@H](C)C/C=C/[C@H]3[C@@H]1O` [cytochalasin B], for which, in the experiment with celastrol signature, the “celastrol score (connectivity score)” value is reported as 0 and the celastrol rank turned out to be 125. Also, in the experiment on gedunin signature, the “gedunin score (connectivity score)” value was 0.476 and the gedunin rank came to 22.
For the molecule `CC(=O)N(O)CCCCCNC(=O)CCC(=O)N(O)CCCCCNC(=O)CCC(=O)N(O)CCCCCN` [deferoxamine], the “celastrol score (connectivity score)” value in the experiment with celastrol signature was −0.175. Further, in the experiment with gedunin signature, the “gedunin score (connectivity score)” value amounted to 0.
In the case of `CC/C=C\C/C=C\C/C=C\C/C=C\C/C=C\C/C=C\CCC(=O)OCC` [docosahexaenoic acid ethyl ester], in the experiment on celastrol signature, the “celastrol score (connectivity score)” value is on record as 0.572 and the celastrol rank amounted to 14. Besides, in the experiment with gedunin signature, the “gedunin score (connectivity score)” value was 0.493 and the gedunin rank was 21.
`CC1=C(CC(=O)O)c2cc(F)ccc2/C1=C\c1ccc([S+](C)[O-])cc1` (stereo not shown) [sulindac]: the “celastrol score (connectivity score)” value in the experiment with celastrol signature is on record as 0.207. For the same molecule, in the experiment with gedunin signature, the “gedunin score (connectivity score)” value was 0.177.
The matching figures for `CN(C)CCCN1c2ccccc2Sc2ccc(Cl)cc21` [chlorpromazine]: 0.08 and 0.218.
As for `CC/C(=C(\c1ccccc1)c1ccc(OCCN(C)C)cc1)c1ccccc1` [tamoxifen], the “celastrol score (connectivity score)” value in the experiment on celastrol signature was found to be 0. The “gedunin score (connectivity score)” value in the experiment with gedunin signature is on record as 0.216.
Regarding `O=C(O)c1cc(/N=N/c2ccc(S(=O)(=O)Nc3ccccn3)cc2)ccc1O` [sulfasalazine], the “celastrol score (connectivity score)” value in the experiment with celastrol signature turned out to be 0. Also, in the experiment with gedunin signature, the “gedunin score (connectivity score)” value is on record as 0.
For the molecule `O=S(=O)(c1cccc2cnccc12)N1CCCNCC1` [fasudil], in the experiment with celastrol signature, the “celastrol score (connectivity score)” value is 0. Also, the “gedunin score (connectivity score)” value in the experiment with gedunin signature was determined as 0.
`CC(C)C[C@@H](C=O)NC(=O)[C@H](CC(C)C)NC(=O)[C@H](CC(C)C)NC(=O)OCc1ccccc1` [MG-132] (Cbz-Leu-Leu-Leu-aldehyde): the “celastrol score (connectivity score)” value in the experiment on celastrol signature is 0.902. In the experiment on gedunin signature, the “gedunin score (connectivity score)” value is 0.912.
As to `C[C@]12CC[C@@H]3c4ccc(O)cc4CC[C@H]3[C@@H]1CC[C@@H]2O` [estradiol], in the experiment on celastrol signature, the “celastrol score (connectivity score)” value stood at 0.017. In addition, the “gedunin score (connectivity score)” value with gedunin signature is given as −0.166.
The matching figures for `NC(=O)c1cccc(N)c1` [3-aminobenzamide]: −0.587 and 0.
Take `COC(=O)CNC(=O)C(=O)OC` [dimelhyloxalylglycine]: in the experiment on celastrol signature, the “celastrol score (connectivity score)” value is reported as 0.326 and the celastrol rank amounted to 44. Moreover, in the experiment on gedunin signature, the “gedunin score (connectivity score)” value turned out to be 0 and the gedunin rank is given as 119.
Turning to `Oc1cccc2c(O)nccc12` [1,5-isoquinolinediol], in the experiment on celastrol signature, the “celastrol score (connectivity score)” value is reported as −0.608. In addition, in the experiment with gedunin signature, the “gedunin score (connectivity score)” value is 0.
The matching figures for `O=C(O)Cc1ccccc1Nc1c(Cl)cccc1Cl` [diclofenac]: −0.197 and −0.165.
Take `NC(=O)C(=O)O` [oxamic acid]: the “celastrol score (connectivity score)” value with celastrol signature is −0.654. Also, the “gedunin score (connectivity score)” value in the experiment on gedunin signature is listed as 0.
The matching figures for `CCOC(=O)C1=C(C)NC(=S)NC1c1cccc(O)c1` (stereo not shown) [monastrol]: 0.226 and 0.069.
Regarding `CN[C@@H]1C[C@H]2O[C@@](C)([C@@H]1OC)n1c3ccccc3c3c4c(c5c6ccccc6n2c5c31)C(=O)NC4` [staurosporine], in the experiment with celastrol signature, the “celastrol score (connectivity score)” value amounted to 0.092. Moreover, the “gedunin score (connectivity score)” value with gedunin signature is given as 0.
With `C=C1C[C@@H]2[C@H](CC[C@]3(C)C(=O)CC[C@@H]23)[C@@]2(C)C=CC(=O)C=C12` [exemestane], the “celastrol score (connectivity score)” value in the experiment on celastrol signature was 0.427. Moreover, in the experiment on gedunin signature, the “gedunin score (connectivity score)” value amounted to 0.
As for `CN1CCN(CCCN2c3ccccc3Sc3ccc(C(F)(F)F)cc32)CC1` [trifluoperazine, reference compound], the “gedunin score (connectivity score)” value in the experiment on gedunin signature worked out at 0.559.
On to `COc1cc(/C=C(\C#N)C(N)=O)cc(CSc2nc3ccccc3s2)c1O` [tyrphostin AG-825], for which, in the experiment with celastrol signature, the “celastrol score (connectivity score)” value worked out at 0 and the celastrol rank was found to be 137. Further, in the experiment on gedunin signature, the “gedunin score (connectivity score)” value is 0 and the gedunin rank amounted to 141.
Turning to BW-B70C, in the experiment with celastrol signature, the “celastrol score (connectivity score)” value was 0.719 and the celastrol rank was determined as 10. Moreover, in the experiment on gedunin signature, the “gedunin score (connectivity score)” value is 0.557 and the gedunin rank stood at 12.
